Assay results as given in ChEMBL document CHEMBL1154224, “Spiropiperidine CCR5 antagonists” (Bioorg Med Chem Lett, 2009).
pIC50: −log10 of the molar value.

Assays:
[1] = (§1) Intrinsic clearance in human liver microsomes assessed per mg of protein; assay type: ADME, Microsome; conditions: liver microsomes
[2] = Efflux ratio of permeability from basolateral to apical to apical to basolateral side in human 21 days cultured Caco-2 cells; assay type: ADME, cell-based
[3] = (§2) Intrinsic clearance in rat liver microsomes assessed per mg of protein; assay type: ADME, Microsome; conditions: liver microsomes
[4] = target: C-C chemokine receptor type 5 (Homo sapiens, UniProt P51681); assay: Displacement of [125I]RANTES from human CCR5 receptor co-transfected with Galphai6 in CHO cells; assay type: cell-based
Chain of C-C chemokine receptor type 5 (P51681 whole entry): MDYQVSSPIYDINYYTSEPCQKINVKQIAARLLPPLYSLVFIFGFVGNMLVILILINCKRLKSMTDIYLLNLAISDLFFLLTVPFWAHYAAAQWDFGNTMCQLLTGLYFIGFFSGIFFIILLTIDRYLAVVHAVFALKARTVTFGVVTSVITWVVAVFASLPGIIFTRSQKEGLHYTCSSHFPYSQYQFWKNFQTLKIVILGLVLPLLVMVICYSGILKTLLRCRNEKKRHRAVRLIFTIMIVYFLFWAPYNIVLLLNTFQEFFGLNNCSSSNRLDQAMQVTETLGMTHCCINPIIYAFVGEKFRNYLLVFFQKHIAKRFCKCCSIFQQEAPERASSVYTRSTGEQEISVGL

[5] = Permeability from apical to basolateral side of the human 21 days cultured Caco-2 cells; assay type: ADME, cell-based; conditions: read-out: permeability
[6] = test system: Human immunodeficiency virus 1; assay: Antiviral activity against recombinant HIV1 virus infected in human JC53BL cells after 3 days; assay type: functional, organism-based; conditions: Human immunodeficiency virus 1, JC53BL, 72 h
[7] = test system: Liver microsomes; assay: as §1; assay type: ADME, Microsome; conditions: microsomes
[8] = test system: Liver microsomes; assay: as §2; assay type: ADME, Microsome; conditions: microsomes
[9] = species on record: Homo sapiens; assay: Hepatic blood flow in human; assay type: ADME, organism-based, Liver
[10] = Oral bioavailability in rat at 10 mg/kg; assay type: ADME, organism-based; conditions: in vivo

Compound	microsomal CLint [1] [µL/min/mg]	pIC50 [4]	pIC50 [6]	further results
CCCCC1N(CC2CCCCC2)C(=O)OC12CCN(C1(C)CCN(C(=O)c3c(C)cccc3C)CC1)CC2 (centres undefined)	526	8.00	> 8.92	efflux ratio [2]: 0.4; microsomal CLint [3]: 523 µL/min/mg; Papp A→B [5]: 14 ×10⁻⁶ cm/s
CCCCC1N(CC2CCCCC2)C(=O)OC12CCN(C1(C)CCN(C(=O)c3c(C)ncnc3C)CC1)CC2 (centres undefined)	162	8.15	7.34	
CCCCC1CN(CC2CCCCC2)C(=O)OC12CCN(C1CCN(C(=O)c3c(C)ncnc3C)CC1)CC2 (centres undefined)		7.17	7.51	clearance [7]: 119 µL/min/mg; clearance [8]: 80 µL/min/mg; LBF [9]: 82%; bioavailability [10]: 43%
CCCCC1CN(CC2CCOCC2)C(=O)OC12CCN(C1CCN(C(=O)c3c(C)ncnc3C)CC1)CC2 (centres undefined)		7.12	6.39	
CCCC[C@@H]1CN(CC2CCOCC2)C(=O)OC12CCN(C1(C)CCN(C(=O)c3c(C)ncnc3C)CC1)CC2	17	7.00	< 6.20	
CCCC[C@H]1CN(CC2CCCCO2)C(=O)OC12CCN(C1(C)CCN(C(=O)c3c(C)ccnc3C)CC1)CC2 (some centres undefined)	53	8.00	7.26	
CCCC[C@H]1CN(C2CCOCC2)C(=O)OC12CCN(C1(C)CCN(C(=O)c3c(C)ncnc3C)CC1)CC2			7.08	
CCCCC1N(CC2CCOCC2)C(=O)OC12CCN(C1(C)CCN(C(=O)c3c(C)ncnc3C)CC1)CC2 (centres undefined)	27	7.24	6.43	efflux ratio [2]: 31; Papp A→B [5]: 0.6 ×10⁻⁶ cm/s
CCCC[C@H]1CN(CC2CCOCC2)C(=O)OC12CCN(C1(C)CCN(C(=O)c3c(C)cc[n+]([O-])c3C)CC1)CC2		7.10	7.28	
CCCC[C@H]1CN(CC2CCOCC2)C(=O)OC12CCN(C1(C)CCN(C(=O)c3c(C)cc(=O)oc3C)CC1)CC2	36	7.92	8.52	
CCCC[C@H]1CN(CC2CCOCC2)C(=O)OC12CCN(C1(C)CCN(C(=O)c3c(C)nc(C(F)(F)F)nc3C)CC1)CC2	46	7.01	8.52	
CCCC[C@H]1CN(CC2CCC(F)(F)CC2)C(=O)OC12CCN(C1(C)CCN(C(=O)c3c(C)ncnc3C)CC1)CC2	106	7.57	8.70	
CCCCC1CN(CC2CCOCC2)C(=O)OC12CCN(C1(C)CCN(C(=O)c3c(C)ncnc3C)CC1)CC2 (centres undefined)	17	7.60	7.85	
CCCC[C@H]1CN(CCC2CCOCC2)C(=O)OC12CCN(C1(C)CCN(C(=O)c3c(C)ncnc3C)CC1)CC2	37		8.10	
CCCC[C@H]1CN(CC2CCOCC2)C(=O)OC12CCN(C1(C)CCN(C(=O)c3c(C)ccnc3C)CC1)CC2	33	7.21	8.40	
CCCC[C@H]1CN(C)C(=O)OC12CCN(C1(C)CCN(C(=O)c3c(C)cc(C#N)nc3C)CC1)CC2	28	7.66	7.92	
CCCCC1CN(CC2CCOCC2)C(=O)OC12CCN(C1(C)CCN(C(=O)c3c(C)cc(C#N)nc3C)CC1)CC2 (racemic)	42	7.62	8.40	

Continued, in another order:

microsomal CLint [1] [µL/min/mg]	pIC50 [4]	pIC50 [6]	Compound	further results
	7.00	< 6.20	CCCCC1N(CC2CCCCC2)C(=O)OC12CCN(C1CCN(C(=O)c3ccccc3C)CC1)CC2 (centres undefined)	
	7.74	< 6.20	CCCCC1N(CC2CCCC2)C(=O)OC12CCN(C1CCN(C(=O)c3c(C)cccc3C)CC1)CC2 (centres undefined)	
164	7.05	7.62	CCCCC1CN(CC2CCOCC2)C(=O)OC12CCN(C1CCN(C(=O)c3c(C)cccc3C)CC1)CC2 (centres undefined)	
	7.62	< 6.20	CCCCC1N(CC2CCOCC2)C(=O)OC12CCN(C1CCN(C(=O)c3c(C)cccc3C)CC1)CC2 (centres undefined)	
	6.84	< 6.20	CCCCC1N(Cc2ccccc2)C(=O)OC12CCN(C1CCN(C(=O)c3c(C)cccc3C)CC1)CC2 (centres undefined)	
	6.52	< 6.20	CCCC1N(CC2CCCCC2)C(=O)OC12CCN(C1CCN(C(=O)c3c(C)cccc3C)CC1)CC2 (centres undefined)	
307	7.52	7.54	CCCCC1CN(CC2CCCCC2)C(=O)OC12CCN(C1CCN(C(=O)c3c(C)cccc3C)CC1)CC2 (centres undefined)	
675	7.29	6.90	CCCCC1N(CC2CCCCC2)C(=O)OC12CCN(C1CCN(C(=O)c3c(C)cccc3C)CC1)CC2 (centres undefined)	microsomal CLint [3]: 2000 µL/min/mg
